# Results reported in US20110183951A1, “Copper (1) Complex” (priority 2006, published 2011).
# Legend:
# [1] = tested on: rats; assay: Bioavailability studies on rats (liver and kidney functions, blood picture, lipid profile); assay type: in vivo
# Excerpt: The study on rats included five groups, group 1 control, 2 receiving cu, group.2 pyrazinic, group 3 complex with large dose, & group 5 receiving complex with small dose.
# [2] = tested on: fatigue; assay: Clinical trials for treatment of fatigue in humans; assay type: in vivo
# [3] = tested on: dilated Cardiomyopathy; assay: Clinical trials in cardiomyopathy; assay type: in vivo, human; details: clinically and in ECHO cardiographic measurements
# Excerpt: Improvement is shown both clinically and in the ECHO cardiographic measurements.
# [4] = tested on: male infertility (sperm count, motility); assay: Male infertility study, 20 patients; assay type: in vivo, human
# [5] = Physical properties: stability of the complex; assay type: physicochemical; details: solid, when well-dried
# [6] = Physical properties: solubility of the complex; assay type: physicochemical
# Excerpt: Solubility: the complex is insoluble in non-polar solvents, e.g. benzene, carbon tetrachloride, etc., and insoluble in polar solvents: water, methanol, ethanol, acetone, but soluble in these solvents upon heating in inert atmosphere, to prevent oxidation.
# [7] = tested on: muscle weakness (muscle dystrophies, post stroke weakness); assay: Clinical trials for treatment of weakness of muscles; assay type: in vivo, human
# Excerpt: The complex used in treatment of muscle weakness for different underlying causes (muscle dystrophies post stroke weakness). […] When the patient reaches the optimum dose, onset of improvement in muscle power is observed within hours of drug intake.
# [8] = tested on: rats; assay: Toxicity of the complex (LD50, mortality within 24 hrs); assay type: in vivo
# Description: Seventy two rats (250+/−2.0 g b.wt) were randomly located into 12 groups of 6 rats each.
# Mortality in each group were recorded within 24 hrs.
# [9] = tested on: stem cell differentiation; assay: In vivo stem cell, CD4 and CD8 counts before and during medication; details: before and at regular intervals of medication
# Excerpt: We hypothesized that the drug may have a role in stimulating the stem cells present in the various organs to differentiate. […] In vivo we measured the stem cell count together with CD8 and CD4 cells before, and at regular intervals of medication.
compound,measurement,setting,value
"O=C(O)c1cnccn1 [pyrazinic, pyrazinic acid, reference compound]",Lipid profile,[1],didn't show significant difference
same,liver and kidney functions versus control,[1],no significant difference
[CuCI (pyrazinic acid)2].2H2O [complex],muscle pain,[2]; all types of fatigue,relieved the muscle pain
same,physical activity and productivity,[2]; all types of fatigue,increased the physical activity and productivity
same,"agonizing fatigue in Parkinsonism, myositis, disseminated sclerosis","[2]; human, in vivo",improves markedly
same,"cases improved, dilated cardiomyopathy due to other causes",[3],80%
same,improvement of dilated Cardiomyopathy secondary to Duchenne muscle dystrophy,[3],improved all cases
same,sperm motility,[4]; all cases,significant improvement of motility
same,azospermic patients who got healthy babies,[4]; among the responders,two of them got healthy babies
same,oligospermia cases who got healthy babies,"[4]; human, in vivo",four cases got also healthy babies
same,sperm count in azospermic patients after treatment,"[4]; responders, within 6 weeks of treatment",1.5-3 millions/hpf
same,sperm count in Oligospermia,[4]; within 1 month of treatment,doubling of the count
same,azospermic patients whose count increased,[4]; within 6 weeks of treatment,seven out of nine
same,Stability,[5],sufficiently stable when well-dried
same,Solubility in non-polar solvents,"[6]; e.g. benzene, carbon tetrachloride",insoluble
same,Solubility in polar solvents upon heating,[6]; upon heating in inert atmosphere,soluble
same,Solubility in polar solvents,"[6]; water, methanol, ethanol, acetone",insoluble
same,Clinical improvement in DMS patients,"[7]; affected by age, weight and degree of dystrophy",dose dependant
same,onset of improvement in muscle power,"[7]; at optimum dose, after drug intake",within hours
same,Lipid profile,[1],didn't show significant difference
same,liver and kidney functions versus control,[1],no significant difference
same,lymphocytic count (complete blood picture),"[1]; large and small dose groups, not exceeding the normal range",increase of lymphocytic count
same,LD50 (intrapperitoneally),[8]; intraperitoneal,128 mg/kg
same,LD50 (oral),[8]; oral,1104.17 mg/kg
same,CD4/CD8,[9],no disturbance
same,CD4 and CD8 number,[9],increase
same,stem cell count,[9],significant decrease
